Laboratory results published in ChEMBL document CHEMBL4368910, “Discovery of ( R)-8-(6-Methyl-4-oxo-1,4,5,6-tetrahydropyrrolo[3,4- b]pyrrol-2-yl)-3-(1-methylcyclopropyl)-2-((1-methylcyclopropyl)amino)quinazolin-4(3 H)-one, a Potent and Selective Pim-1/2 Kinase Inhibitor for Hematological Malignancies” (J Med Chem, 2019).
≈ marks a conversion by molar mass, not a printed value.

Legend:
[1] = Solubility of the compound in 0.01N HCl at pH 2 incubated for 1 hr in shaker and subsequently equilibrated for 72 hrs by LC/MS analysis; assay type: physicochemical
[2] = Solubility of the compound in phosphate buffer solution at pH 7.4 incubated for 1 hr in shaker and subsequently equilibrated for 72 hrs by LC/MS analysis; assay type: physicochemical
[3] = Solubility of the compound in fasted state simulated intestinal fluid at pH 6.8 incubated for 1 hr in shaker and subsequently equilibrated for 72 hrs by LC/MS analysis; assay type: physicochemical
[4] = Apparent permeability in pig LLC-PK1 cells at 5 uM; assay type: ADME, cell-based, Sus scrofa
[5] = Volume of distribution at steady state in Sprague-Dawley rat; assay type: ADME; settings: in vivo, read-out: Vdss
[6] = Oral bioavailability in Sprague-Dawley rat at 5 mg/kg; assay type: ADME, organism-based; settings: in vivo
[7] = Drug uptake in plasma of SCID-Beige mouse xenografted with human KMS-12-BM cells at 25 to 100 mg/kg, po administered once daily for 14 days and measured twice per week; assay type: ADME, organism-based; settings: in vivo, 336 h
[8] = Volume of distribution at steady state in dog; assay type: ADME, Canis lupus familiaris; settings: in vivo, read-out: Vdss
[9] = Oral bioavailability in dog; assay type: ADME, organism-based, Canis lupus familiaris; settings: in vivo

Row | solubility thermodynamic at 72 h [1] [µM] | solubility thermodynamic at 72 h [2] [µM] | solubility thermodynamic at 72 h [3] [µM] | Papp at 5 µM [4] [×10⁻⁶ cm/s] | Vd [5] [L/kg] | bioavailability [6] [%] | Drug uptake [7] | Vd [8] [L/kg] | bioavailability [9] [%] | Compound
1 | 500 (≈ 182 µg/mL) | 56 (≈ 20.4 µg/mL) | 344 (≈ 125 µg/mL) | 31 | – | – | – | – | – | C[C@H]1NC(=O)c2cc(-c3cccc4c(=O)n(C)c(NC5(C)CC5)nc34)[nH]c21
2 | 60 (≈ 21.9 µg/mL) | 23 (≈ 8.41 µg/mL) | 104 (≈ 38 µg/mL) | 46 | – | – | – | – | – | C[C@H]1NC(=O)c2cc(-c3cccc4c(=O)n(C)c(NC(C)(C)C)nc34)[nH]c21
3 | < 5 | < 5 | 58 (≈ 23.6 µg/mL) | – | – | – | – | – | – | C[C@H]1NC(=O)c2cc(-c3cccc4c(=O)n(C(C)(C)C)c(NC(C)(C)C)nc34)[nH]c21
4 | 464 (≈ 212 µg/mL) | 60 (≈ 27.5 µg/mL) | 469 (≈ 215 µg/mL) | 35 | 1 | 19 | – | – | – | C[C@H]1NC(=O)c2cc(-c3cccc4c(=O)n([C@@H](C)c5cn(C)cn5)c(NC5(C)CC5)nc34)[nH]c21
5 | < 5 | < 5 | 36 (≈ 14.6 µg/mL) | – | – | – | – | – | – | C[C@H]1NC(=O)c2cc(-c3cccc4c(=O)n(C5(C)CC5)c(NC(C)(C)C)nc34)[nH]c21
6 | < 5 | 19 (≈ 8.28 µg/mL) | 60 (≈ 26.1 µg/mL) | – | – | – | – | – | – | C[C@H]1NC(=O)c2cc(-c3cccc4c(=O)n(C[C@H]5CCCO5)c(NC(C)(C)C)nc34)[nH]c21
7 | 441 (≈ 178 µg/mL) | < 5 | 379 (≈ 153 µg/mL) | – | – | – | – | – | – | C[C@H]1NC(=O)c2cc(-c3cccc4c(=O)n(C5CCC5)c(NC5(C)CC5)nc34)[nH]c21
8 | 500 (≈ 232 µg/mL) | 122 (≈ 56.7 µg/mL) | 283 (≈ 131 µg/mL) | – | – | – | – | – | – | C[C@H]1NC(=O)c2cc(-c3cccc4c(=O)n(C[C@@H]5CN(C)CCO5)c(NC(C)(C)C)nc34)[nH]c21
9 | 28 (≈ 12.2 µg/mL) | 12 (≈ 5.23 µg/mL) | 15 (≈ 6.53 µg/mL) | – | – | – | – | – | – | C[C@H]1NC(=O)c2cc(-c3cccc4c(=O)n(C[C@@H]5CCCO5)c(NC(C)(C)C)nc34)[nH]c21
10 | 94 (≈ 41.9 µg/mL) | 22 (≈ 9.8 µg/mL) | 131 (≈ 58.4 µg/mL) | – | – | – | – | – | – | C[C@H]1NC(=O)c2cc(-c3cccc4c(=O)n(Cc5cn(C)cn5)c(NC(C)(C)C)nc34)[nH]c21
11 | 490 (≈ 198 µg/mL) | 31 (≈ 12.5 µg/mL) | 185 (≈ 74.6 µg/mL) | 32 | 1.7 | 85 | Dose-dependent effect | 2.1 | 56 | C[C@H]1NC(=O)c2cc(-c3cccc4c(=O)n(C5(C)CC5)c(NC5(C)CC5)nc34)[nH]c21
12 | < 5 | < 5 | < 5 | – | – | – | – | – | – | C[C@H]1NC(=O)c2cc(-c3cccc4c(=O)n(CC5(O)CC5)c(NC(C)(C)C)nc34)[nH]c21

More lines, now with the values behind:

Row | Compound | solubility thermodynamic at 72 h [1] [µM] | solubility thermodynamic at 72 h [2] [µM] | solubility thermodynamic at 72 h [3] [µM] | Papp at 5 µM [4] [×10⁻⁶ cm/s] | Vd [5] [L/kg] | bioavailability [6] [%] | Drug uptake [7] | Vd [8] [L/kg] | bioavailability [9] [%]
13 | C[C@H]1NC(=O)c2cc(-c3cccc4c(=O)n(C5CC5)c(NC(C)(C)C)nc34)[nH]c21 | 95 (≈ 37.2 µg/mL) | 13 (≈ 5.09 µg/mL) | 175 (≈ 68.5 µg/mL) | – | – | – | – | – | –
14 | CC(C)n1c(NC(C)(C)C)nc2c(-c3cc4c([nH]3)[C@@H](C)NC4=O)cccc2c1=O | 26 (≈ 10.2 µg/mL) | 11 (≈ 4.33 µg/mL) | 68 (≈ 26.8 µg/mL) | – | – | – | – | – | –
15 | C[C@H]1NC(=O)c2cc(-c3cccc4c(=O)n(C5CC5)c(NC5(C)CC5)nc34)[nH]c21 | 458 (≈ 178 µg/mL) | 78 (≈ 30.4 µg/mL) | 144 (≈ 56.1 µg/mL) | 23 | 1.2 | 68 | – | – | –
16 | C[C@H]1NC(=O)c2cc(-c3cccc4c(=O)n(CC5CC5)c(NC5(C)CC5)nc34)[nH]c21 | 214 (≈ 86.3 µg/mL) | 13 (≈ 5.25 µg/mL) | 179 (≈ 72.2 µg/mL) | – | – | – | – | – | –
17 | C[C@H]1NC(=O)c2cc(-c3cccc4c(=O)n(CC5CC5)c(NC(C)(C)C)nc34)[nH]c21 | < 5 | < 5 | 12 (≈ 4.87 µg/mL) | – | – | – | – | – | –
18 | C[C@H]1NC(=O)c2cc(-c3cccc4c(=O)n(C[C@H]5CN(C)CCO5)c(NC(C)(C)C)nc34)[nH]c21 | 256 (≈ 119 µg/mL) | < 5 | < 5 | – | – | – | – | – | –
19 | C[C@H]1NC(=O)c2cc(-c3cccc4c(=O)n(CC(C)(C)N)c(NC(C)(C)C)nc34)[nH]c21 | 347 (≈ 147 µg/mL) | 26 (≈ 11 µg/mL) | 131 (≈ 55.4 µg/mL) | – | – | – | – | – | –
20 | C[C@H]1NC(=O)c2cc(-c3cccc4c(=O)n(CC5(O)CC5)c(NC5(C)CC5)nc34)[nH]c21 | 43 (≈ 18 µg/mL) | < 5 | 15 (≈ 6.29 µg/mL) | – | – | – | – | – | –
21 | C[C@H](c1cn(C)cn1)n1c(NC2(C)CC2)nc2c(-c3cc4c([nH]3)[C@@H](C)NC4=O)cccc2c1=O | 485 (≈ 222 µg/mL) | 53 (≈ 24.2 µg/mL) | 435 (≈ 199 µg/mL) | – | – | – | – | – | –
22 | CC(c1cn(C)cn1)n1c(NC(C)(C)C)nc2c(-c3cc4c([nH]3)[C@@H](C)NC4=O)cccc2c1=O (stereo not given in full) | 423 (≈ 194 µg/mL) | 86 (≈ 39.5 µg/mL) | 489 (≈ 225 µg/mL) | – | – | – | – | – | –
23 | C[C@H]1NC(=O)c2cc(-c3cccc4c(=O)n(CC5(N)CC5)c(NC(C)(C)C)nc34)[nH]c21 | 500 (≈ 210 µg/mL) | < 5 | 42 (≈ 17.7 µg/mL) | – | – | – | – | – | –
24 | C[C@H]1NC(=O)c2cc(-c3cccc4c(=O)n(CC5COC5)c(NC(C)(C)C)nc34)[nH]c21 | 14 (≈ 5.9 µg/mL) | 6 (≈ 2.53 µg/mL) | 32 (≈ 13.5 µg/mL) | – | – | – | – | – | –
25 | C[C@H]1NC(=O)c2cc(-c3cccc4c(=O)n(CC5(N)CC5)c(NC5(C)CC5)nc34)[nH]c21 | 454 (≈ 190 µg/mL) | 134 (≈ 56.1 µg/mL) | 280 (≈ 117 µg/mL) | – | – | – | – | – | –
26 | C[C@H]1NC(=O)c2cc(-c3cccc4c(=O)n(C(C)(C)C)c(NC5(C)CC5)nc34)[nH]c21 | 495 (≈ 201 µg/mL) | < 5 | 326 (≈ 132 µg/mL) | – | – | – | – | – | –
27 | CC(c1cn(C)cn1)n1c(NC2(C)CC2)nc2c(-c3cc4c([nH]3)[C@@H](C)NC4=O)cccc2c1=O (mixture of isomers) | 500 | 52 | 500 | – | – | – | – | – | –
